Measured values published in patent US7470669B2, “Isolated polypeptide comprising a leptin fragment” (Serono Genetics Institute, S.A., priority 1999, dated 2008).

Test system: LSR
Test: Ligand blot of 125I-leptin on LSR complexes immunoprecipitated from PLC cells
Format: binding, human
Conditions: PLC cell lysates; complexes of 200 and 230 kDa
Method: FIGS. 4A, 4B, 4C, and 4D show LSR binding and degradation of ^125I-leptin in human hepatocytes, and the effect of 81B anti-LSR antibody. For FIG. 4A, PLC cells were lysed (3-T175 cm^2 flasks per condition) and immunoprecipitated with irrelevant or 81B anti-serum. The immunoprecipitates were washed, were separated on 10% SDS-polyacrylamide gels under nondenaturing conditions, and were transferred to nitrocellulose. Ligand blots using ^125I-leptin were then performed as described in FIG. 2. For FIG. 4B, confluent monolayers of PLC cells were incubated at 37° C. for 30 min with 100 nM insulin, were washed, and then were incubated for 30 min at room temperature in the presence of anti-LSR peptide 81B antibody (▪), or irrelevant (□) IgG. After this, the cells were incubated at 37° C. for 2 h with increasing concentrations of ^125I-leptin in Buffer A. The monolayers were washed, and the amount of ^125I-leptin degraded was determined as described herein. Results are shown as the mean of duplicate (irrelevant IgG) or triplicate (anti-LSR peptide IgG) determinations. FIG. 4C is a schematic diagram of the motifs found from the predicted protein sequence of LSR α cDNA. […] After washing and incubation with goat-anti-rabbit FITC-conjugated antibody, the cells were fixed and analyzed by flow cytometry using a FACSCalibur (Becton Dickinson). […]

Question: Which “binding of 125I-leptin to multimeric complexes precipitated by the 81B antibody” value does the source give for “leptin: plasma protein of 16 kDa produced by adipocytes; recombinant human or mouse leptin, species depends on the experiment” here?
Answer: The value was “binds directly”.
